We go through one compound from US20060222599A1, “Inhalative powder formulations containing the CGRP-antagonist 1 [N2-[3,5-dibromo-N-[[4-(3,4-dihydro-2(1H)-oxoquinazolin-3-yl)-1-piperidinyl]carbonyl]-D-tyrosyl]-L-lysyl]-4-(4-pyridinyl)-piperazine” (Boehringer Ingelheim International GmbH, priority 2003, published 2006).

The conditions of data set [1]: conventional formulations; cited from earlier work.
The nature of data set [2]: specific surface area (multi point BET, nitrogen). The data set is classed as physicochemical. Particulars: air-jet-ground, anhydrous. The source says:
• Measuring method: In order to determine the particle size the powder is fed into a laser diffraction spectrometer using a dispersing unit. The median value X50 refers to the particle size below which 50% of the quantity of particles fall. The Q(5.8) value describes the percentage of particles which are less than 5.8 μm in size. • Measuring device: Laser diffraction spectrometer (HELOS), Messrs. • Sympatec • Software: WINDOX Version 3.3/REL 1 • Dispersing unit: RODOS/dispersing pressure: 3 bar • Focal length: 100 mm [measuring range: 0.9 . . . . 175 μm] • Evaluation method: HRLD (V 3.3 Rel. 1) b) Determining the Specific Surface Area: • Measuring method: The specific surface is determined by exposing the powder sample to a nitrogen atmosphere at different pressures.
Cooling the sample causes the nitrogen molecules to be condensed on the surface of the particles. The quantity of condensed nitrogen is determined by means of the drop in pressure in the system and the specific surface area of the sample is calculated by means of the surface nitrogen requirement and the weight of the sample. • Measuring device: Tri Star Multi Point BET, Messrs. Micromeritics • Heating station: VacPrep 061, Messrs. Micromeritics
Heating: approx. 12 h/40° C.

The nature of data set [3]: physical stability of the amorphous micronised active substance in powder mixtures with excipients. It is filed as physicochemical. The source says: It is known that the amorphous state of solids is thermodynamically unstable. In particular, this contributes to the fact that microparticles which have amorphous parts or are purely amorphous are metastable in their physicochemical properties. Typically, amorphous or partially amorphous pharmaceutical active substances and excipients, such as sugars, for example, recrystallise spontaneously during storage under normal conditions. The process may be accelerated by an increase in the relative humidity and possibly the temperature. In association with this recrystallisation, the particles change their surface characteristics, their particle morphology and their particle size.

A further data set can be described thus: hygroscopicity. It is filed as physicochemical.
The nature of data set [4]: systemic bioavailability after pulmonary or nasal inhalation. The data set is classed as in vivo. Particulars: powder mixture with excipients, inhaled.

Like-named read-outs stand apart in the source and are kept apart here.

On to `NCCCC[C@H](NC(=O)[C@@H](Cc1cc(Br)c(O)c(Br)c1)NC(=O)N1CCC(N2Cc3ccccc3NC2=O)CC1)C(=O)N1CCN(c2ccncc2)CC1` [A, 1-[N^2-[3,5-dibromo-N-[[4-(3,4-dihydro-2(1H)-oxoquinazolin-3-yl)-1-piperidinyl]carbonyl]-D-tyrosyl]-L-lysyl]-4-(4-pyridinyl)-piperazine], for which the oral bioavailability result in data set [1] is listed as “very limited oral bioavailability”. Also, in data set [2], the specific surface area amounted to 20.2 m^2/g. Moreover, the “amorphous form on storage (X-ray powder diffractometry)” value in data set [3] (amorphous micronised particles, shelf life of the medicament) is given as “maintained throughout the shelf life”. For the same compound, in data set [3] (powder mixtures with excipients), the physical stability entry was “physically stable”. Besides, the hygroscopicity entry in the data set “hygroscopicity” is listed as “hygroscopic”; in “hygroscopicity” (listed as active substance), “strongly hygroscopic”. For the same compound, the “bioavailability by pulmonary or nasal inhalation” value in data set [4] is recorded as “sufficiently bioavailable”.
